Data published in patent US7247640B2, “Medicament for treatment of bone marrow suppression, for treatment of infectious diseases and for increasing the number of leukocytes” (Nippon Kayaku Kabushiki Kaisha, priority 2001, dated 2007).

Columns and labels:
Assay type in all cases: in vivo, ICR strain male mice (Crj:CD-1)
[1] = test system: leukocytes; assay: Test for evaluating an efficacy on drug-induced leukopenia (cyclophosphamide); details: for number of leukocytes, percentage based on Day 0 / number of leukocytes (mean ± S.D): cyclophosphamide 200 mg/kg i.p. Day 0
Method: The effect of sulphostin [3(S)-amino-1-((R)-amino(sulfoamino)phosphinyl)-2-piperidone] on drug-induced leukopenia was evaluated according to the method of Okabe et al. (Yakuri to Chiryo (Japanese Pharmacology and Therapeutics) Vol. 19, No. 6, p. 55, 1991).
ICR strain male mice (Crj:CD-1) aged 8 weeks were used in the test. The animals were divided into three groups of 3 or 4 animals per group.
On Day 0, cyclophosphamide was intraperitoneally administered once to all the groups in a dose of 200 mg/kg. From the next day, the following were intravenously and repeatedly administered to the groups, respectively, for 5 days (Day 1 to 5); the first group (a control group): physiological saline, the second group: sulphostin (30 mg/kg/day), and the third group: sulphostin (100 mg/kg/day). Blood was drawn from the posterior-eyehole venous plexus on Day 0 (before the administration of cyclophosphamide) and Days 2, 4, 6 and 8 (the blood drawing, however, was carried out only on Days 0, 4 and 6 in the case of the second group), and the number of leukocytes was periodically measured to investigate the leukocyte-increasing effect of sulphostin relative to a decrease of leukocytes caused by cyclophosphamide.
The data are expressed as the mean±S.D and percentages based on the number of leukocytes on Day 0. ND refers to no data.

[2] = test system: leukocytes; assay: Test for investigating the increase of leukocytes in normal mice; details: blood on day after last administration
Method: ICR strain male mice (Crj:CD-1) aged 7 weeks were used in the test. The animals were divided into 5 groups of 4 animals per group. The following were intravenously and repeatedly administered to the groups, respectively, for 5 days; the first group: physiological saline as solvent, the second group: sulphostin (2 mg/kg/day), the third group: sulphostin (10 mg/kg/day), the fourth group: sulphostin (50 mg/kg/day), and the fifth group: sulphostin (250 mg/kg/day). On the day subsequent to the last day of the administration period, blood was drawn from the abdominal aorta under anesthesia and the number of leukocytes was measured.

[3] = test system: G-CSF; assay: Test for investigating the increase of G-CSF concentration in normal mice (plasma, mouse G-CSF ELISA); details: blood on day after completion
Method: ICR strain male mice (Crj:CD-1) aged 7 weeks were used in the test. The animals were divided into 4 groups of 5 animals per group. The following were intravenously and repeatedly administered to the groups, respectively, for 5 days; the first group: physiological saline as solvent, the second group: sulphostin (10 mg/kg/day), the third group: sulphostin (30 mg/kg/day), and the fourth group: sulphostin (90 mg/kg/day). On the day subsequent to completion of the administration, blood was drawn from the abdominal aorta under anesthesia. The blood obtained was centrifuged to collect plasma, and G-CSF was measured by the use of a mouse G-CSF ELISA measuring kit (R & D SYSTEMS Inc.).

[4] = sulphostin 10 mg/kg/day i.v. for 5 days

N[C@H]1CCCN([P@@](N)(=O)NS(=O)(=O)O)C1=O [Sulphostin, 3(S)-amino-1-((R)-amino(sulfoamino)-phosphinyl)-2-piperidone]
number of leukocytes, percentage based on Day 0 ([1]; sulphostin 30 mg/kg/day i.v. Day 1 to 5, Day 0 (before cyclophosphamide)): 100%
number of leukocytes (mean ± S.D) ([1]; sulphostin 30 mg/kg/day i.v. Day 1 to 5, Day 0 (before cyclophosphamide), n = 3): 44 ± 7.1 ×100/millimeter cube
number of leukocytes, percentage based on Day 0 ([1]; sulphostin 30 mg/kg/day i.v. Day 1 to 5, Day 4): 30%
number of leukocytes (mean ± S.D) ([1]; sulphostin 30 mg/kg/day i.v. Day 1 to 5, Day 4, n = 3): 13 ± 12.5 ×100/millimeter cube
number of leukocytes, percentage based on Day 0 ([1]; sulphostin 30 mg/kg/day i.v. Day 1 to 5, Day 6): 95%
number of leukocytes (mean ± S.D) ([1]; sulphostin 30 mg/kg/day i.v. Day 1 to 5, Day 6, n = 3): 42 ± 14.5 ×100/millimeter cube
number of leukocytes, percentage based on Day 0 ([1]; sulphostin 100 mg/kg/day i.v. Day 1 to 5, Day 0 (before cyclophosphamide)): 100%
number of leukocytes (mean ± S.D) ([1]; sulphostin 100 mg/kg/day i.v. Day 1 to 5, Day 0 (before cyclophosphamide), n = 4): 38 ± 17.2 ×100/millimeter cube
number of leukocytes, percentage based on Day 0 ([1]; sulphostin 100 mg/kg/day i.v. Day 1 to 5, Day 2): 55%
number of leukocytes (mean ± S.D) ([1]; sulphostin 100 mg/kg/day i.v. Day 1 to 5, Day 2, n = 4): 21 ± 5.1 ×100/millimeter cube
number of leukocytes, percentage based on Day 0 ([1]; sulphostin 100 mg/kg/day i.v. Day 1 to 5, Day 4): 26%
number of leukocytes (mean ± S.D) ([1]; sulphostin 100 mg/kg/day i.v. Day 1 to 5, Day 4, n = 4): 10 ± 6.3 ×100/millimeter cube
number of leukocytes, percentage based on Day 0 ([1]; sulphostin 100 mg/kg/day i.v. Day 1 to 5, Day 6): 126%
number of leukocytes (mean ± S.D) ([1]; sulphostin 100 mg/kg/day i.v. Day 1 to 5, Day 6, n = 4): 48 ± 23.8 ×100/millimeter cube
number of leukocytes, percentage based on Day 0 ([1]; sulphostin 100 mg/kg/day i.v. Day 1 to 5, Day 8): 668%
number of leukocytes (mean ± S.D) ([1]; sulphostin 100 mg/kg/day i.v. Day 1 to 5, Day 8, n = 4): 254 ± 75.5 ×100/millimeter cube
restoration of the number of leukocytes to the initial value after the administration of cyclophosphamide, time required ([1]; sulphostin-treated groups (30 and 100 mg/kg/day i.v.), control group requires 8 days): 6 days
number of leukocytes larger than that of the control group by factor ([2]; sulphostin 2 mg/kg/day i.v. for 5 days): 1.4
number of leukocytes larger than that of the control group by factor [2, 4]: 1.9
number of leukocytes larger than that of the control group by factor ([2]; sulphostin 50 mg/kg/day i.v. for 5 days): 4.9
number of leukocytes larger than that of the control group by factor ([2]; sulphostin 250 mg/kg/day i.v. for 5 days): 5.9
G-CSF level higher than that of the control group by factor [3, 4]: 1.03
G-CSF level higher than that of the control group by factor ([3]; sulphostin 30 mg/kg/day i.v. for 5 days): 6.1
G-CSF level higher than that of the control group by factor ([3]; sulphostin 90 mg/kg/day i.v. for 5 days): 7.0
